{
  "source": "patent US12150945B2",
  "about": "“Liver disease” (Lipocine Inc., priority 2018, dated 2024)",
  "type_in_all_cases": "in vivo, human",
  "key": {"lipids": {"test_system": "lipids", "experiment": "Lipid parameters (HDL, LDL, total cholesterol, triglycerides, non-HDL cholesterol), change from baseline to end of study, trial of Example 1", "conditions": "lipid parameters other than HDL cholesterol", "description": "(§1) Oral testosterone therapy was evaluated in a multicenter, phase 3, randomized, open-label, active controlled, parallel-group study that included a 13-week efficacy phase and a 52-week safety phase. An active arm in which subjects received T gel was included for safety evaluation only.\n(§2) Subjects were randomized in a 2:1 ratio to oral testosterone undecanoate or T gel. oral testosterone undecanoate subjects started at a dose of 225 mg TU (“testosterone undecanoate”) taken twice daily (total daily dose: 450 mg TU) every 12 hours. For optimal lymphatic absorption oral testosterone undecanoate must be administered with a meal. Therefore, subjects were instructed to administer oral testosterone undecanoate after a standard meal (defined as a meal consisting of 800 to 1400 calories with approximately 20% to 35% fat content). The oral testosterone undecanoate dose was titrated at Weeks 4 and 8, if necessary, based on results of intensive 24-hour PK blood sampling obtained at Weeks 3 and 7, respectively. Oral testosterone undecanoate subjects stayed at the clinic overnight during each intensive PK blood sampling period. […] Oral testosterone undecanoate dose levels permitted during the study were 150 mg BID, 225 mg BID, and 300 mg BID. Data collected during an intensive 24-hour PK sampling overnight stay at Week 13 were used for efficacy analysis; dose was not adjusted at this visit. Additional outpatient visits were conducted at Weeks 26, 39, and 52 during which single blood draws were performed 3 to 6 hours post morning dose. Dose was not adjusted during these visits.\n(§3) T gel (ANDROGEL®) (testosterone gel for topical use) 1.62%, AbbVie, Chicago, Illinois, US) was supplied in non-aerosol, metered dose pumps that deliver 20.25 mg T per complete pump actuation. T gel was dosed according to product labeling. Subjects receiving T gel completed outpatient visits at Weeks 2 and 4 with single blood draws to determine titration and at Weeks 3 and 5 for dose changes, if necessary. They also completed an outpatient visit at Week 7 for safety assessments and at Weeks 13, 26, 39 and 52 during which single blood samples were obtained 3 to 6 hours after the morning dose. Dose was not adjusted during these visits. Overnight clinic stays were not required for T gel subjects.\n(§4) Safety endpoints included adverse events (AEs), physical examination findings, vital signs, electrocardiograms (ECGs), and clinical laboratory tests. AEs were classified using the Medical Dictionary for Regulatory Activities (Version 16.1). Safety endpoints were summarized using descriptive statistics. Lab parameters were evaluated using two sample t-tests comparing change from baseline to end of study (EOS) across oral testosterone undecanoate and T gel subjects with p-values <0.05 considered statistically significant."}, "liver fat": {"test_system": "liver fat", "experiment": "Liver Fat Study: liver fat by MRI-PDFF in hypogonadal males treated with LPCN 1144 (Example 6)", "conditions": "for Mean relative liver fat % change: 16 weeks of treatment", "description": "In an a prospective design open-label, multi-center, single arm ‘Liver Fat Study’ evaluating LPCN 1144 (oral testosterone undecanoate) treatment in hypogonadal patients, baseline % liver fat was assessed via MRI-PDFF in a subset of study patients (N=36).\nThis example is part of an ongoing Liver Fat Study which is an open-label, multi-center, single arm study evaluating LPCN 1144 treatment (e.g., androgen therapy, testosterone therapy, oral testosterone ester, or 225 mg testosterone undecanoate orally) in a cohort of 36 hypogonadal males (NCT03868059). Subjects with at least 10% baseline liver fat were evaluated which is indicative of subjects with NAFLD with the potential to have NASH. Interim results of seven of the nine subjects in the Liver Fat Study with baseline liver fat of at least 10% are presented as two subjects were unable to schedule an eight-week MRI-PDFF visit. Baseline mean liver fat of these seven subjects was 21.0%.\nAn MRI-PDFF study of 36 male hypogonadal subjects (having 2 morning testosterone levels of 300 ng/dL or less) was performed as part of an ongoing trial. Basic baseline labs including liver function tests (e.g., AST & ALT) and serum triglycerides were collected and analyzed. It was found by non-linear regression, that BMI (ALT, AST, serum Triglyceride) was associated with liver fat (P<0.006). It was found by non-linear regression, that serum triglyceride levels (obesity, hypertension, type 2 diabetes) were associated with liver fat (P<0.006)."}, "SHBG": {"test_system": "SHBG", "experiment": "Sex hormone binding globulin (SHBG) levels, trial of Example 1", "description": "as §1\nSubjects were randomized in a 2:1 ratio to oral testosterone undecanoate or T gel. oral testosterone undecanoate subjects started at a dose of 225 mg TU (“testosterone undecanoate”) taken twice daily (total daily dose: 450 mg TU) every 12 hours. For optimal lymphatic absorption oral testosterone undecanoate must be administered with a meal. […]\n(§5) Serum levels of T, TU, dihydrotestosterone (DHT), dihydrotestosterone undecanoate (DHTU), and estradiol (E2) were evaluated in oral testosterone undecanoate treated subjects. […] Sex hormone binding globulin (SHBG) was evaluated in data from all subjects. Serum T concentrations at screening were measured using chemiluminescence immunoassay kits. Hormone assays for pharmacokinetic assessment were analyzed at PPD Bioanalytical Laboratory in Richmond, Virginia Serum samples were analyzed for T, DHT, TU, DHTU, and E2 using a validated liquid chromatography-tandem mass spectrometry (LC-MS/MS) assay."}, "C-Reactive Protein": {"test_system": "C-Reactive Protein", "experiment": "C-Reactive Protein, change from baseline to end of study, trial of Example 1", "conditions": "Safety Set; subjects with CRP values > 95.23 excluded"}, "[1]": {"experiment": "Serum testosterone pharmacokinetics (24-hour PK sampling, LC-MS/MS), phase 3 oral testosterone undecanoate trial of Example 1", "conditions": "for Average serum T levels: single blood draw 3 to 6 hours post morning dose", "description": "as §1\nMales 18 through 80 years old with a documented diagnosis of primary hypogonadism (congenital or acquired) or hypogonadotropic hypogonadism (congenital or acquired) and with morning serum T<300 ng/dL based on 2 consecutive blood samples obtained between 0600 and 1000 on 2 separate days at approximately the same time were eligible to participate. Subjects were either naïve to T therapy or completed an adequate washout of T therapy (eg, 12 weeks after intramuscular androgen injections excluding TU injections which required a longer waiting period; 4 weeks after topical or buccal androgens; and 3 weeks after oral androgens). Exclusion criteria included abnormal prostate digital rectal examination with palpable nodule(s) or International Prostate Symptom Score (IPSS)>19 points; body mass index ≥38 kg/m^2, clinically significant laboratory values (baseline hemoglobin <11.5 or >16.5 g/dL, hematocrit <35% or >54%, serum transaminases >2.5 times upper limit of normal, serum bilirubin >2.0 mg/dL, creatinine >2.0 mg/dL, prostate specific antigen [PSA]>2 ng/mL, prolactin >17.7 ng/mL); history of seizures or convulsions; any surgical procedure that might interfere with gastrointestinal motility, pH, or absorption; stroke or myocardial infarction within 5 years; current or suspected prostate or breast cancer; severe, untreated, obstructive sleep apnea; long QT syndrome or unexplained sudden death in first-degree relative; concurrent medication use that could impact absorption, distribution, metabolism, or excretion of TU or place subject at risk for treatment with T; and dose changes of antihypertensive, lipid-lowering, or hypoglycemic agents within previous 3 months.\nas §2, §5"}, "liver function enzymes": {"test_system": "liver function enzymes", "experiment": "Liver function enzymes (ALT, AST, ALP, GGT, bilirubin), change from baseline to end of study, trial of Example 1", "description": "as §1, §2, §3, §4"}, "[2]": {"conditions": "interim, eight-week MRI-PDFF, seven subjects with baseline liver fat of at least 10%"}, "[3]": {"conditions": "4th quartile patients based on lab parameter level, 1 year study"}, "[4]": {"conditions": "Safety Set, baseline to end of study"}},
  "data": [
    {"smiles": "CCCCCCCCCCC(=O)O[C@H]1CC[C@H]2[C@@H]3CCC4=CC(=O)CC[C@]4(C)[C@H]3CC[C@]12C", "note": "[oral testosterone undecanoate, testosterone undecanoate]", "values": [
      {"measurement": "other lipid parameters, difference between oral testosterone undecanoate and T gel", "setting": "lipids", "value": "No statistically significant differences"},
      {"measurement": "Mean relative liver fat % change", "setting": "liver fat; baseline liver fat of 8% or greater", "value": "−42", "unit": "%"},
      {"measurement": "Mean relative liver fat % change", "setting": "liver fat; baseline liver fat of 10% or greater", "value": "−40", "unit": "%"},
      {"measurement": "Mean relative liver fat % change", "setting": "liver fat; subjects having NAFLD (baseline liver fat of 5% or greater)", "value": "−33", "unit": "%"},
      {"measurement": "NAFLD resolved (baseline liver fat greater than or equal to 5% going to less than 5% at end of study), % of subjects", "setting": "liver fat; end of study", "value": 48, "unit": "%"},
      {"measurement": "mean relative liver fat change in patients with NAFLD resolution", "setting": "liver fat; end of study", "value": "−55", "unit": "%"},
      {"measurement": "responder rate (% of patients with at least a 30% relative reduction in liver fat from baseline)", "setting": "liver fat; end of study, greater than or equal to 5% baseline liver fat", "value": 71, "unit": "%"},
      {"measurement": "responder rate (% of patients with at least a 30% relative reduction in liver fat from baseline)", "setting": "liver fat; end of study, greater than or equal to 8% baseline liver fat", "value": 80, "unit": "%"},
      {"measurement": "responder rate (% of patients with at least a 30% relative reduction in liver fat from baseline)", "setting": "liver fat; end of study, greater than or equal to 10% baseline liver fat", "value": 70, "unit": "%"},
      {"measurement": "relative mean liver fat reduction from baseline", "setting": "liver fat; [2]", "value": 38, "unit": "%"},
      {"measurement": "responder rate: at least a 4.1% absolute reduction in liver fat from baseline", "setting": "liver fat; [2]", "value": 86, "unit": "%"},
      {"measurement": "responder rate: at least a 29% reduction in liver fat from baseline", "setting": "liver fat; [2]", "value": 71, "unit": "%"},
      {"measurement": "absolute mean reduction from baseline of liver fat (MRI-PDFF)", "setting": "liver fat; interim, eight-week MRI-PDFF, seven subjects with baseline liver fat of at least 10%, baseline mean 21.0%", "value": 7.6, "unit": "%"},
      {"measurement": "SHBG change from baseline", "setting": "SHBG; Week 13 (largest decrease)", "value": -11.75, "unit": "nmol/L"},
      {"measurement": "Mean SHBG levels", "setting": "SHBG; each post-baseline visit", "value": "decreased"},
      {"measurement": "C-Reactive Protein, mean (SD) change from baseline to end of study", "setting": "C-Reactive Protein", "value": "−4.68 (30.94) nmol/L"},
      {"measurement": "serum T Cavg0-24 h", "setting": "[1]; Week 13", "value": 446, "unit": "ng/dL"},
      {"measurement": "serum T Cmax", "setting": "[1]; Week 13", "value": 1134, "unit": "ng/dL"},
      {"measurement": "subjects with serum T Cavg0-24 h between 300 and 1140 ng/dL", "setting": "[1]; Week 13, 95% lower bound CI: 81.7%, met predefined efficacy criteria", "value": 87.4, "unit": "%"},
      {"measurement": "Average serum T levels", "setting": "[1]; Week 26", "value": "481 ± 371", "unit": "ng/dL"},
      {"measurement": "Average serum T levels", "setting": "[1]; Week 39", "value": "543 ± 438", "unit": "ng/dL"},
      {"measurement": "Average serum T levels", "setting": "[1]; Week 52", "value": "538 ± 545", "unit": "ng/dL"},
      {"measurement": "ALP, mean change from baseline", "setting": "liver function enzymes; [3]", "value": "−10.2", "unit": "U/L"},
      {"measurement": "ALP, mean change from baseline, %", "setting": "liver function enzymes; [3]", "value": "−10.4", "unit": "%"},
      {"measurement": "ALT, mean change from baseline", "setting": "liver function enzymes; [3]", "value": "−10.0", "unit": "U/L"},
      {"measurement": "ALT, mean change from baseline, %", "setting": "liver function enzymes; [3]", "value": "−16.7", "unit": "%"},
      {"measurement": "AST, mean change from baseline", "setting": "liver function enzymes; [3]", "value": -6.3, "unit": "U/L"},
      {"measurement": "AST, mean change from baseline, %", "setting": "liver function enzymes; [3]", "value": "−16.6", "unit": "%"},
      {"measurement": "Albumin, mean change from baseline", "setting": "liver function enzymes; [3]", "value": -2.5, "unit": "g/L"},
      {"measurement": "Albumin, mean change from baseline, %", "setting": "liver function enzymes; [3]", "value": "−3.1", "unit": "%"},
      {"measurement": "Bilirubin, mean change from baseline", "setting": "liver function enzymes; [3]", "value": -0.18, "unit": "mg/dL"},
      {"measurement": "Bilirubin, mean change from baseline, %", "setting": "liver function enzymes; [3]", "value": "−20.5", "unit": "%"},
      {"measurement": "Creatinine, mean change from baseline", "setting": "liver function enzymes; [3]", "value": 0.01, "unit": "mg/dL"},
      {"measurement": "Creatinine, mean change from baseline, %", "setting": "liver function enzymes; [3]", "value": 0.8, "unit": "%"},
      {"measurement": "GGT, mean change from baseline", "setting": "liver function enzymes; [3]", "value": "−7.0", "unit": "U/L"},
      {"measurement": "GGT, mean change from baseline, %", "setting": "liver function enzymes; [3]", "value": "−7.4", "unit": "%"},
      {"measurement": "ALT, mean (SD) change from baseline to end of study", "setting": "liver function enzymes; [4]", "value": "−3.07 (11.22) U/L"},
      {"measurement": "AST, mean (SD) change from baseline to end of study", "setting": "liver function enzymes; [4]", "value": "−1.5 (7.52) U/L"},
      {"measurement": "Alkaline phosphatase, mean (SD) change from baseline to end of study", "setting": "liver function enzymes; [4]", "value": "−4.1 (13.33) U/L"},
      {"measurement": "Bilirubin, mean (SD) change from baseline to end of study", "setting": "liver function enzymes; [4]", "value": "−0.43 (3.66) mcmol/L"},
      {"measurement": "GGT, mean (SD) change from baseline to end of study", "setting": "liver function enzymes; [4]", "value": "−2.0 (12.50) U/L"}
    ]}
  ]
}
